{
  "source": "patent US11028061B2",
  "about": "“Modulators of myocyte lipid accumulation and insulin resistance and methods of use thereof” (Sanford Burnham Prebys Medical Discovery Institute, priority 2015, dated 2021)",
  "key": {"human skeletal myotubes": {"test_system": "human skeletal myotubes", "experiment": "Cellular glucose uptake assay ([3H]-2-deoxyglucose)", "type": "cell-based", "conditions": "10 μM SBI-477, 24 hours", "protocol": "After differentiation, primary human skeletal myotubes were incubated with the indicated concentration of SBI-477 for 24 hours and then treated with insulin (100 nM) for 30 minutes. Cells were washed in phosphate-buffered saline (PBS) three times at room temperature and then incubated with Krebs-Ringer HEPES buffer (140 mM NaCl, 5 mM KCl, 1 mM CaCl2, 2.5 mM MgSO4, 2.5 mM, NaH2PO4, 20 mM HEPES and 0.1% bovine serum albumin) containing [3H]-2-deoxyglucose (1.0 μCi/mL) for 15 min. Glucose uptake was terminated by washing five times with ice-cold PBS. The cells were then solubilized with 0.5N sodium hydroxide (NaOH). The amount of [3H]-2-deoxyglucose taken up was measured by liquid scintillation analyzer (PerkinElmer) and normalized to total protein."}, "[1]": {"test_system": "fatty acid transporter, CD36", "experiment": "CD36 gene expression", "type": "cell-based", "conditions": "data not shown", "protocol": "(§1) Total RNA was isolated using RNeasy Mini Kit (Qiagen) according to the manufacturer's instructions. cDNA was synthesized using the Affinity Script cDNA Synthesis Kit (Stratagene) with 0.5 μg of total RNA. PCR reactions were performed in triplicate […] Roche LightCycler® 480 Instrument II) with specific primers for each gene."}, "[2]": {"test_system": "primary human skeletal myotubes", "experiment": "Fatty acid oxidation (FAO) assay, 3H-palmitate", "type": "cell-based", "conditions": "24 hours", "protocol": "FAO rates were determined for primary human skeletal myotubes with or without SBI-477 using 125 μM [3H]-palmitic acid (Djouadi, et al., Mol Genet Metab. 2003; 78(2):112-118). Primary human skeletal myotubes were grown and differentiated in 24-well plates. Cells were treated with the indicated concentration of SBI-477 for 24 hours. Following compound treatment, cells were rinsed three times with PBS and then incubated in 125 μM [3H]-palmitic acid (60 Ci/mmol) bound to fatty acid free albumin containing 1 mM carnitine for 2 hours at 37° C. The cell medium was transferred to a tube containing cold 10% trichloroacetic acid (TCA). The tubes were centrifuged at 8,500×g for 10 minutes at 4° C. The supernatant was immediately removed, mixed with 6N NaOH, and applied to ion-exchange resin (DOWEX 1; Sigma-Aldrich). The eluate was collected, measured by liquid scintillation analyzer (PerkinElmer) and normalized to total protein amount. The amount of cell protein was measured by Micro BCA protein assay kit (Thermo Scientific)."}, "MGAT1/2/3": {"test_system": "MGAT1/2/3", "experiment": "Direct inhibition of MGAT1/2/3 activity", "type": "biochemical", "conditions": "data not shown"}, "Akt": {"test_system": "Akt", "experiment": "Western blot of Akt phosphorylation", "type": "cell-based, human", "conditions": "24 hours", "protocol": "FIGS. 3A, B, C, E and F show SBI-477 stimulation of glucose uptake and activates insulin signaling in the absence of insulin. Human skeletal myotubes were incubated with SBI-477 at the indicated concentration for 24 hours and then treated with or without insulin (100 nM) for 30 minutes. Glucose ([3H]-2-deoxyglucose, 2-DG) uptake (FIG. 3A) and glycogen synthesis rates (FIGS. 3B and 3C) were measured (n=5) as described in Methods. *p<0.05 vs. Vehicle, no insulin, †p<0.05 vs. Vehicle/insulin by two-way ANOVA with Tukey's post hoc test. (FIG. 3E) Western blot analysis of human myotubes treated with SBI-477 for 24 hours was performed to determine the effect on steps of the insulin signaling pathway using specific Akt and IRS-1 phosphorylation sites as endpoints. Insulin treatment (100 nM) for 30 minutes was used as positive control. (FIG. 3F) Quantitation of the western blot data in […] is shown (n=5). *p<0.05 or **p<0.01 vs. Vehicle by one-way ANOVA with Bonferroni post hoc test. The data represent mean±SD.\n(§2) Cells were lysed in the RIPA buffer containing 1% NP-40, 5 mM Na4P2O7, 1 mM EDTA, 20 mM NaF, 2 mM Na3VO4, 1× cOmplete™ protease inhibitor (Roche) and 1 mM phenylmethylsulfonyl fluoride. […] Protein quantification was performed using FluorChemQ (Alpha Innotech) and normalized to […]-actin or total protein where indicated."}, "S6K": {"test_system": "S6K", "experiment": "Western blot of pS6K (T389)", "type": "cell-based, human", "conditions": "24 hours", "protocol": "FIGS. 3D and G show SBI-477-mediated increase in glucose uptake in oleate-loaded skeletal myotubes (FIG. 3D) SBI-477 increases glucose uptake in oleate-loaded human skeletal myotubes. Basal and insulin-stimulated [3H]2-DG uptake was measured in human skeletal myotubes following treatment with SBI-477 for 24 hours in the presence of 100 μM oleate or BSA as a control. *p<0.05 vs. vehicle, †p<0.05 vs. vehicle/insulin by one-way ANOVA with Bonferroni post hoc test. FIG. 3G—Western blot analysis (left) of human myotubes treated with SBI-477 for 24 hours was performed to determine activation of S6K and AMPK using the indicated phospho-specific antibodies. Insulin treatment (100 nM) for 30 minutes was used as positive control. Quantitation (right) of the Western blot data is shown (n=4-5). *p<0.05 vs. Vehicle by one-way ANOVA with Bonferroni post hoc test. The data represent mean±SD.\nas §2, with “fluoride. Whole cell lysates were subjected to SDS-PAGE and transferred to a nitrocellulose membrane. The blots were hybridized with specific antibodies and developed with enhanced chemiluminescence kit (Pierce).” for “fluoride.”"}, "TXNIP": {"test_system": "TXNIP", "experiment": "TXNIP expression by quantitative RT-PCR in human myotubes", "type": "cell-based", "conditions": "24 hours", "protocol": "FIGS. 4A-C show downregulation of TXNIP and ARRDC4 expression by SBI-477. (FIG. 4A) TXNIP and ARRDC4 mRNA levels as determined by quantitative RT-PCR in human myotubes treated with SBI-477 (10 μM) or DGAT1 inhibitor (DGATi, […]) for 24 hours in the absence or presence of 100 μM oleate (n=4). Expression is shown relative to vehicle/BSA treatment. (FIG. 4B) TXNIP gene expression following exposure to a dose range of SBI-477 for 24 hours (n=4). (FIG. 4C) Left, Effect of SBI-477 on TXNIP protein levels as determined by western blot analysis by SBI-477. Right, Quantitation of the TXNIP western blot data is shown (n=5). *p<0.05 vs. Vehicle/BSA control, †p<0.05 vs. Vehicle/oleate by one-way ANOVA with Bonferroni post hoc test. The data are shown as mean±SD.\nas §1"}},
  "data": [
    {"compound": "COc1ccc(-c2csc(NC(=O)c3ccc(OCC(=O)N4CCOCC4)c(OC)c3)n2)cc1", "note": "[Cpd. 7, 3-methoxy-N-(4-(4-methoxyphenyl)thiazol-2-yl)-4-(2-morpholino-2-oxoethoxy)benzamide]", "values": [
      {"measurement": "Increase of basal and insulin stimulated glucose uptake", "setting": "human skeletal myotubes", "result": "approximately 84%"},
      {"measurement": "Gene expression of CD36", "setting": "[1]", "result": "no effect"},
      {"measurement": "FAO rates", "setting": "[2]", "result": "increased by SBI-477 in a dose-dependent manner"},
      {"measurement": "Direct inhibition of MGAT1/2/3 activity", "setting": "MGAT1/2/3", "result": "not found that SBI-477 directly inhibits"},
      {"measurement": "Phosphorylation of Akt", "setting": "Akt", "result": "also increased"},
      {"measurement": "Levels of pS6K (T389)", "setting": "S6K", "result": "reduced"},
      {"measurement": "TXNIP expression", "setting": "TXNIP", "result": "robust, dose-dependent downregulation"}
    ]}
  ]
}
